Several values for one entry are separate records, joined by “and”; a condition that tells them apart may be missing. Equal values may be shown once. Read-outs that look alike come from different tables or passages of the source.
Columns and labels:
[1] = test system: HuNoV (GII.4) RdRp; test: Counter-screen gel-shift assay of primed elongation activity (PE44-NoV template); format: biochemical, human norovirus; details: fixed concentration of 100 μM
Procedure: To further confirm RdRp inhibition and exclude any potential false positives from the first fluorescence RdRp assay, the eight molecules were then assessed using a gel-shift enzyme activity assay at a fixed concentration of 100 μM, following a procedure previously adopted by our research group.
Figure 5 A counter-screen gel-shift assay was used to confirm HuNoV (GII.4) RdRp inhibitory activity of compounds 2, 3, 34 and 35 (A), 4, 5, 6 (B) and 7 (C). The eight compounds were examined for inhibition of primed elongation activity. PE44-NoV RNA templates (32 nucleotides) were extended (44 nucleotides) by the RdRp in the absence of any test compounds (0.5% DMSO [vol/vol] negative control) or with test compounds at a fixed concentration of 100 μM. […] Full-length gels are presented in Supplementary Fig. S3.
Fluorescent RdRp activity assays were carried out as previously described[12],[29]. Briefly, RdRp activity was quantified by monitoring the formation of double-stranded RNA (dsRNA) from a single stranded homopolymeric template, poly(C) (Sigma Aldrich), using the fluorescent dye PicoGreen (Life Technologies, Carlsbad, CA, USA). RdRp assays were performed in 384-well plates, and each reaction mixture contained 400 ng enzyme, 45 μM GTP, 10 ng/μL poly(C) RNA, 2.5 mM MnCl2, 5 mM dithiothreitol, (DTT), 0.01% bovine serum albumin (BSA), and 0.005% Tween 20 in 20 mM Tris-HCl, pH 7.5, with a final reaction volume of 25 μL. The PPNDS and compound 1 were used as a positive controls. RdRps were incubated for 10 mins at 30 °C in the presence of the test compounds or the compound vehicle DMSO (0.5% vol/vol) before addition into the reaction mixture, which was then allowed to run 15 min at 30 °C then terminated with 10 mM EDTA, followed by PicoGreen staining and dsRNA quantitation. GraphPad Prism V6.05 (La Jolla, CA, USA) was used to plot the IC50 values. A secondary gel-based polymerase activity assay was used as a counter-screen as described below, to exclude the possibility of RdRp activity enhancement. Primed elongation activity was examined in a gel-based assay as previously described[12],[29] using the RNA template (PE44-NoV). Gels were imaged using BioRad (Hercules, CA, U.SA) Geldoc Universal Hood II, running BioRad Image Lab software, V4.1, build 16.

[2] = similar MNV cell-based assay; cited from earlier work
[3] = test system: MNV; test: MNV CPE reduction assay (MTS) in RAW 264.7 cells; format: cell-based, mouse norovirus (MNV-1.CW1); details: Norovirus, RAW264.7, in Mus musculus, Table 2, RAW 264.7, range 0.6–100 µM, at least three independent experiments
Procedure, shortened: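 MNV-1.CW1-infected RAW 264.7 cells treated at eight concentrations (0.6–100 µM), 2′-C-methylcytidine as positive control. Viability read by MTS/PMS at OD 498 nm after 2 h; %CPE reduction normalised to uninfected and infected untreated cells, EC50 = concentration protecting 50% of cells from virus-induced CPE.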

[4] = Cytotoxicity by the MTS method on uninfected cells; format: cell-based; details: mouse, uninfected RAW 264.7 cells, Table 2, at least three independent experiments
Procedure: Cytotoxicity: The cytotoxicity of the Compounds was evaluated by the MTS method, by exposing uninfected cells to the same concentrations of compounds for 3 days. The %cell viability was calculated as (ODtreated/ODCC) × 100, where ODCC is the OD of uninfected untreated cells and ODtreated are uninfected cells treated with compound. The CC50 was defined as the compound concentration that reduces the number of viable cells by 50%[34].

[5] = test system: HuNoV GI.1 replicon; test: HuNoV GI replicon assay (HGT-NV cells, qRT-PCR); format: cell-based, human norovirus GI.1
Procedure: Given that in this system the gene encoding for the major capsid protein is replaced by a neomycin resistance gene, no new virus particles will be produced but the non-structural proteins are expressed and the replication of the genomic RNA can be studied.
Cells and virus: MNV (virus strain MNV-1.CW1) was propagated in RAW 264.7 cells grown in DMEM (Life Technologies, Gent, Belgium) supplemented with 10% or 2% FBS, 2 mM L-glutamine, 20 mM HEPES, 0.075 g/L sodium bicarbonate, 1 mM sodium pyruvate, 100 U penicillin/mL and 100 µg/mL streptomycin at 37 °C in a humidified atmosphere of 5% CO2. The human norovirus GI.1 replicon harboring gastric tumor-1 cell line (HGT-NV) (kindly provided by Dr. Ian Goodfellow, University of Cambridge) was maintained in DMEM supplemented with 10% FBS, 2mM L-glutamine, 0.075 g/L sodium bicarbonate and 1.0 mg/ml of Geneticin (G418; Life Technologies), at 37 °C in a humidified atmosphere of 5% CO2[34].
Antiviral assay with the HGT-NV replicon: The inhibitory effect of Compounds on human norovirus replication was assessed by quantification of the levels of HuNoV GI replicon RNA and of the reference (housekeeping) gene β-actin mRNA [by quantitative reverse transcription polymerase chain reaction (qRT-PCR)]. To this end, HGT cells (2000 cells/well) were seeded in 96-well plates, in complete DMEM without the selection marker G418. Following an incubation period of 24 h, a serial dilution of rupintrivir was added to the cultures. After 72 h of incubation, cell monolayers were washed with phosphate-buffered saline (PBS) and collected for quantification of RNA load by qRT-PCR. Intracellular RNA was extracted from cells using the cell-to-cDNA lysis buffer (Ambion, Life Technologies). For detection of HuNoV GI replicon RNA, forward (5′-CCG GCT ACC TGC CCA TTC-3′), reverse (5′-CCAGATCATCCTGATCGACAAG-3′) primers and probe (5′-FAM-ACATCGCATCGAGCGAGCACGTAC-TAMRA-3′) for the neomycin gene were used. For detection of β-actin mRNA, forward (5′-GGCATCCACGAAACTACCTT-3′), reverse (5′-AGCACTGTGTTGGCGTACAG-3′) primers and probe (5′-HEX-ATCATGAAGTGTGACGTGGACATCCG-BHQ1–3′) were used. One-step qRT-PCR was performed in a 20 µL reaction mixture containing 10 µl 2X iTaq Universal SYBR® Green one step reaction mix (Bio-rad, California, USA), 5.17 µl RNAse free water, 0.5 µl of iScript reverse transcriptase (Bio-rad, California, USA), 4 µl of the template RNA and either 300 nM of HuNoV GI replicon primers and probe, 300 nM of β-actin primers and 200 nM of probe. Cycling conditions were: reverse transcription at 50 °C for 10 min, initial denaturation at 95 °C for 3 min, followed by 40 cycles of denaturation at 95 °C for 15 s, annealing and extension at 60 °C for 30 seconds (Roche Lightcycler®96, Roche Diagnostics, Belgium). To determine the relative expression levels of HuNoV GI replicon RNA, β-actin was used as a normalizer and ratios were calculated using the Pfaffl method. The Expression Ratio (HuNoV GI Replicon/β-actin) was calculated as: Expression Ratio = (E HuNoV)^ΔCT, HuNoV (CC – TC)/(Eβ-actin)^ΔCT, β-actin (CC – TC), where E HuNoV and Eβ-actin represent the amplification efficiency (E = 10^–1/slope) for the HuNoV GI replicon and β-actin qRT-PCR reactions, respectively. ΔCT, HuNoV (CC – TC) is the Ct of untreated control cells (CC) minus the Ct of cells treated with a compound concentration (TC) obtained with HuNoV GI replicon primers and probe. ΔCT, β-actin (CC – TC) is the Ct of untreated control cells (CC) minus the Ct of cells treated with a compound concentration (TC) obtained with β-actin primers and probe. Efficiency values (E HuNoV and Eβ-actin) were determined for each qRT-PCR reaction.

[6] = Crystal formation seen in the cell-based assays; format: physicochemical; details: observed with the HuNoV GI replicon results

| SMILES | inhibition of primed elongation activity (gel-shift) [1] | CC50 [2] | EC50 [3] [µM] | CC50 at 3 days [4] [µM] | EC50 values (column head printed 'M') ([5]; HuNoV GI replicon in HGT-1 cells, 72 h, replicon RNA by qRT-PCR) | EC50 ([5]; Norwalk virus, HGT-1, 72 h, read-out: EC50 values (column head printed 'M'), HuNoV GI replicon in HGT-1 cells, replicon RNA by qRT-PCR) [µM] | EC50 ([5]; read-out: EC50 values (column head printed 'M'), HuNoV GI replicon in HGT-1 cells, 72 h, replicon RNA by qRT-PCR) [µM] | concentration from which crystals form [6] [µM] |
| --- | --- | --- | --- | --- | --- | --- | --- | --- |
| O=C1NN(c2ccccc2)C(=O)/C1=C/c1ccc(-c2ccc(S(=O)(=O)Nc3ccccc3)cc2)o1 [Compound 1] | complete inhibition | ~64 µM and 62.8 µM | – | – | – | – | – | – |
| O=C(NC(=S)Nc1ccc(N2CCN(S(=O)(=O)c3ccccc3)CC2)cc1)c1ccccc1 [Compound 60, N-((4-(4-(Phenylsulfonyl)piperazin-1-yl)phenyl)carbamothioyl)benzamide] | – | – | 66.6 ± 12.3 | > 100 | low micromolar range | 8 | 8.5 ± 2.1 | ≥ 25 |
